In patent publication US20260184663A1, “INDENE COMPOUNDS, PHARMACEUTICAL COMPOSITIONS THEREOF, AND THEIR THERAPEUTIC APPLICATIONS” (NucMito Pharmaceuticals co. Ltd., priority 2022, published 2026) one finds inhibition data, which are given here for 8 molecules.

Format in all cases: cell-based
Experiment [1] concerns SW480 (colon cancer). Kind of experiment: Antiproliferative activity (CCK-8 cell viability), SW480. To be noted: Homo sapiens, 72 h; for inhibition at 3.3 µM: Compound concentration: 3.3 μM; for inhibition at 3.3 µM / inhibition at 10 µM: read-out: Antiproliferative activity in cancerous cells, SW480 (inhibition of cell growth); for inhibition at 10 µM: Compound concentration: 10 μM. The method, boiled down:
(§1)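 Cells were seeded at 2,000-5,000/well (HeLa in MEM, HepG2 and SW480 in DMEM, A549 in F-12K, all with 10% FBS) and treated with compound at 3.3, 10 or 30 μM for 72 h at 37° C. CCK-8 was added for 4 h, absorbance was read at 450 nm, and viability was expressed relative to DMSO-treated wells.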

Experiment [2] deals with HepG2 (liver cancer). As to the kind of experiment: Antiproliferative activity (CCK-8 cell viability), HepG2. The following applies: Homo sapiens, 72 h, read-out: Antiproliferative activity in cancerous cells, HepG2 (inhibition of cell growth); for inhibition at 3.3 µM: Compound concentration: 3.3 μM; for inhibition at 10 µM: Compound concentration: 10 μM. The gist of the method: as §1

Experiment [3] concerns A549 (lung adenocarcinoma). As to the kind of experiment: Antiproliferative activity (CCK-8 cell viability), A549. The following applies: Homo sapiens, 72 h, read-out: Antiproliferative activity in cancerous cells, A549 (inhibition of cell growth); for inhibition at 3.3 µM: Compound concentration: 3.3 μM; for inhibition at 10 µM: Compound concentration: 10 μM. The gist of the method: as §1

Experiment [4] concerns MDA-MB-231 (breast cancer). As to the kind of experiment: Antiproliferative activity (CCK-8 cell viability), MDA-MB-231. To be noted: Homo sapiens, 72 h; for inhibition at 3.3 µM: Compound concentration: 3.3 μM; for inhibition at 3.3 µM / inhibition at 10 µM: read-out: Antiproliferative activity in cancerous cells, MDA-MB-231 (inhibition of cell growth); for inhibition at 10 µM: Compound concentration: 10 μM. The method, boiled down:
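In this CCK-8 viability assay, MDA-MB-231 cells maintained in Dulbecco's modified Eagle's medium containing 10% fetal bovine serum were placed in 96-well plates (2,000-5,000 cells/well) and treated with compound for 72 h at 37° C. A 4 h incubation with 10 μL CCK-8 followed, plates were read at 450 nm, and viability was expressed against DMSO vehicle wells across replicates.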

Experiment [5] relates to HeLa (cervical cancer). As to the kind of experiment: Antiproliferative activity (CCK-8 cell viability), HeLa. The following applies: Homo sapiens, 72 h, read-out: Antiproliferative activity in cancerous cells, HELA (inhibition of cell growth); for inhibition at 3.3 µM: Compound concentration: 3.3 μM; for inhibition at 10 µM: Compound concentration: 10 μM. The gist of the method:
as §1

Experiment [6] has as its system B16F10 (malignant melanoma). As to the kind of experiment: Antiproliferative activity (CCK-8 cell viability), B16F10. The following applies: Mus musculus, 72 h, read-out: Antiproliferative activity in cancerous cells, B16F10 (inhibition of cell growth); for inhibition at 3.3 µM: B16-F10, Compound concentration: 3.3 μM; for inhibition at 10 µM: B16-F10, Compound concentration: 10 μM. The gist of the method:
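Attached B16F10 cells in 96-well plates were incubated with compound at 37° C for 72 h, followed by 10 μL CCK-8 reagent per well and a further 4 h incubation. A multi-well plate reader measured absorbance at 450 nm. Percent viability across replicates was calculated against DMSO vehicle-treated cells.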

For experiment [7], the system named is A431 (epidermoid carcinoma). Kind of experiment: Antiproliferative activity (CCK-8 cell viability), A431. The following applies: Homo sapiens, 72 h, read-out: Antiproliferative activity in cancerous cells, A431 (inhibition of cell growth); for inhibition at 3.3 µM: A-431, Compound concentration: 3.3 μM; for inhibition at 10 µM: A-431, Compound concentration: 10 μM. The method, boiled down: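 Cell viability of compound-treated A431 cells was measured with a Cell Counting Kit-8. Each well received 10 μL of CCK-8 after 72 h of compound exposure, followed by 4 h incubation at 37° C. and a 450 nm plate-reader measurement. Percent viability was calculated relative to DMSO controls across replicates.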

On to `CC1=C(CC(=O)O)c2cc(Cl)ccc2/C1=C\c1ccc(COCc2ccc(F)cc2)cc1` [B148, (Z)-2-(5-Chloro-1-(4-(((4-fluorobenzyl)oxy)methyl)benzylidene)-2-methyl-1H-inden-3-yl)acetic acid], for which the inhibition at 3.3 µM in experiment [1] is not below 50%; in experiment [2] it was less than 30%; in experiment [3], 30 to 50%; in experiment [4], 30 to 50%; in experiment [5], 30 to 50%; in experiment [6], less than 30%. In addition, the inhibition at 3.3 µM in experiment [7] was not below 50%. Further, the inhibition at 10 µM in experiment [1] is not below 50%; in experiment [2], not below 50%; in experiment [3], not below 50%; in experiment [4] it was 30 to 50%; in experiment [5], not below 50%; in experiment [6], less than 30%. The inhibition at 10 µM in experiment [7] is not below 50%.

Take `CC1=C(CC(=O)O)c2cc(C)ccc2/C1=C\c1ccc(COCc2ccc(Cl)cc2)cc1` [B149, (Z)-2-(1-(4-(((4-Chlorobenzyl)oxy)methyl)benzylidene)-2,5-dimethyl-1H-inden-3-yl)acetic acid]: the inhibition at 3.3 µM was less than 30% in experiment [1]; less than 30% in experiment [2]; 30 to 50% in experiment [3]; less than 30% in experiment [4]; less than 30% in experiment [5]; less than 30% in experiment [6]. Also, in experiment [7], the inhibition at 3.3 µM is not below 50%. Also, the inhibition at 10 µM is 30 to 50% in experiment [1]; not below 50% in experiment [2]; not below 50% in experiment [3]; 30 to 50% in experiment [4]; not below 50% in experiment [5]; less than 30% in experiment [6]. Also, in experiment [7], the inhibition at 10 µM is not below 50%.

Consider `CC1=C(CC(=O)O)c2cc(F)ccc2/C1=C\c1ccc(COCc2ccc(C(C)C)cc2)cc1` [B150, (Z)-2-(5-Fluoro-1-(4-(((4-isopropylbenzyl)oxy)methyl)benzylidene)-2-methyl-1H-inden-3-yl)acetic acid], for which the inhibition at 3.3 µM in experiment [1] was 30 to 50%; in experiment [2], less than 30%; in experiment [3] it was 30 to 50%; in experiment [4] it was 30 to 50%; in experiment [5], 30 to 50%; in experiment [6], less than 30%. In addition, the inhibition at 3.3 µM in experiment [7] was not below 50%. The inhibition at 10 µM in experiment [1], in experiment [2], in experiment [3], in experiment [4], in experiment [5] and in experiment [6] was not below 50% throughout. The inhibition at 10 µM in experiment [7] is not below 50%.

Take `CCc1ccc(COCc2ccc(/C=C3/C(C)=C(CC(=O)O)c4cc(F)ccc43)cc2)cc1` [B151, (Z)-2-(1-(4-(((4-Ethylbenzyl)oxy)methyl)benzylidene)-5-fluoro-2-methyl-1H-inden-3-yl)acetic acid]: the inhibition at 3.3 µM in experiment [1] is 30 to 50%; in experiment [2], less than 30%; in experiment [3], 30 to 50%; in experiment [4] it was 30 to 50%; in experiment [5], less than 30%; in experiment [6], less than 30%. Further, the inhibition at 3.3 µM in experiment [7] was not below 50%. Besides, the inhibition at 10 µM is not below 50% in experiment [1]; not below 50% in experiment [2]; not below 50% in experiment [3]; not below 50% in experiment [4]; not below 50% in experiment [5]; less than 30% in experiment [6]. Also, the inhibition at 10 µM in experiment [7] was not below 50%.

As to `CC1=C(CC(=O)O)c2cc(F)ccc2/C1=C\c1ccc(COCc2ccc(C(F)F)cc2)cc1` [B152, (Z)-2-(1-(4-(((4-(Difluoromethyl)benzyl)oxy)methyl)benzylidene)-5-fluoro-2-methyl-1H-inden-3-yl)acetic acid], the inhibition at 3.3 µM in experiment [1] was 30 to 50%; in experiment [2], less than 30%; in experiment [3], less than 30%; in experiment [4] it was less than 30%; in experiment [5] it was less than 30%; in experiment [6], less than 30%. Further, the inhibition at 3.3 µM in experiment [7] was 30 to 50%. Moreover, the inhibition at 10 µM in experiment [1], in experiment [2], in experiment [3], in experiment [4], in experiment [5] and in experiment [6] was not below 50% throughout. Moreover, in experiment [7], the inhibition at 10 µM was not below 50%.

In the case of `CCc1ccc2c(c1)C(CC(=O)O)=C(C)/C2=C/c1ccc(CCc2ccccc2)cc1` [B157, (Z)-2-(5-Ethyl-2-methyl-1-(4-phenethylbenzylidene)-1H-inden-3-yl)acetic acid], the inhibition at 3.3 µM is not below 50% in experiment [1]; less than 30% in experiment [2]; 30 to 50% in experiment [3]; less than 30% in experiment [4]; less than 30% in experiment [5]; less than 30% in experiment [6]. Further, the inhibition at 3.3 µM in experiment [7] was 30 to 50%. The inhibition at 10 µM is not below 50% in experiment [1]; not below 50% in experiment [2]; not below 50% in experiment [3]; less than 30% in experiment [4]; not below 50% in experiment [5]; not below 50% in experiment [6]. In experiment [7], the inhibition at 10 µM is not below 50%.

In the case of `CC1=C(CC(=O)O)c2cc(Cl)ccc2/C1=C\c1ccc(CCc2ccccc2)cc1` [B158, (Z)-2-(5-Chloro-2-methyl-1-(4-phenethylbenzylidene)-1H-inden-3-yl)acetic acid], the inhibition at 3.3 µM in experiment [1] is less than 30%; in experiment [2] it was less than 30%; in experiment [3], less than 30%; in experiment [4], less than 30%; in experiment [5] it was less than 30%; in experiment [6], 30 to 50%. In addition, the inhibition at 3.3 µM in experiment [7] was less than 30%. For the same molecule, the inhibition at 10 µM in experiment [1] was less than 30%; in experiment [2], not below 50%; in experiment [3] it was less than 30%; in experiment [4] it was less than 30%; in experiment [5], not below 50%; in experiment [6], not below 50%. Besides, the inhibition at 10 µM in experiment [7] is less than 30%. In addition, the inhibition at 30 µM in experiment [1] (Compound concentration: 30 μM, read-out: Antiproliferative activity in cancerous cells, SW480) lay within 30 to 50%; in experiment [4] (Compound concentration: 30 μM, read-out: Antiproliferative activity in cancerous cells, MDA-MB-231), 30 to 50%.

For the molecule `CC1=C(CC(=O)O)c2cc(I)ccc2/C1=C\c1ccc(Oc2ccc(F)cc2)cc1` [C28, (Z)-2-(1-(4-(4-Fluorophenoxy)benzylidene)-5-iodo-2-methyl-1H-inden-3-yl)-acetic acid], the inhibition at 3.3 µM in experiment [1] is less than 30%; in experiment [2], 30 to 50%; in experiment [3], 30 to 50%; in experiment [4], less than 30%; in experiment [5] it was 30 to 50%; in experiment [6] it was 30 to 50%. In experiment [7], the inhibition at 3.3 µM is less than 30%. For the same molecule, the inhibition at 10 µM in experiment [1], in experiment [2], in experiment [3], in experiment [4], in experiment [5] and in experiment [6] was not below 50% throughout. Also, the inhibition at 10 µM in experiment [7] is not below 50%.
